Tested on: HSV-1
Assay: HSV-1 infection of Vero 76 cells, HSV DNA hybridization capture assay
Assay type: cell-based, herpes simplex virus 1
Details: Human alphaherpesvirus 1; HSV-1 (MOI=0.001) in Vero 76 cells, 40–48 hours at 37° C., viral DNA by hybridization/chemiluminescence
Procedure: Vero 76 cells were maintained in MEM with Earle's salts, L-glutamine, 8% FBS (Hyclone, A-1111-L) and 100 units/mL Penicillin-100 μg/mL Streptomycin. For assay conditions, FBS was reduced to 2%. Cells are seeded into 96-well tissue culture plates at a density of 5×10^4 cells/well after being incubated for 45 min at 37° C. in the presence of HSV-1 or HSV-2 (MOI=0.001). Test compounds are added to the wells and the plates are incubated at 37° C. for 40–48 hours. Cell lysates are prepared as follows: media was removed and replaced with 150 μL/well 0.2 N NaOH with 1% Igepal CA 630 or NP-40. Plates were incubated up to 14 days at room temperature in a humidified chamber to prevent evaporation.
For the detection probe, a gel-purified, digoxigenin-labeled, […] PCR fragment of the HSV UL-15 sequence was utilized. PCR conditions included 0.5 μM primers, 180 μM dTP, 20 μM dUTP-digoxigenin (Boehringer Mannheim 1558706), 200 μM each of dATP, dCTP, and dGTP, 1×PCR Buffer II (Perkin Elmer), 2.5 mM MgCl2, 0.025 units/μL of AmpliTaq Gold polymerase (Perkin Elmer), and 5 ng of gel-purified HSV DNA per 100 μL Extension conditions were 10 min at 95° C., followed by 30 cycles of 95° C. for 1 min, 55° C. for 30 sec, and 72° C. for 2 min. The amplification was completed with a 10-min incubation at 72° C. Primers were selected to amplify a 728 bp probe spanning a section of the HSV1 UL15 open reading frame (nucleotides 249–977). Single-stranded transcripts were purified with Promega M13 Wizard kits. The final product was mixed 1:1 with a mixture of 6 M GuSCN, 100 mM EDTA and 200 μg/mL herring sperm DNA and stored at 4° C.
The capture DNA plasmid (HSV UL13 region in pUC) was linearized by cutting with Xba I, denatured for 15 min at 95° C. and diluted immediately into Reacti-Bind DNA Coating Solution (Pierce, 17250, diluted 1:1 with TE buffer, pH 8) at 1 ng/μL 75 μL/well were added to Corning (#3922 or 9690) white 96-well plates and incubated at room temperature for at least 4 hrs before washing twice with 300 μL/well 0.2×SSC/0.05% Tween-20 (SSC/T buffer). The plates were then incubated overnight at room temperature with 150 μL/well 0.2 N NaOH, 1% IGEPAL and 10 μg/mL herring sperm DNA.
Twenty-seven (27) μL of cell lysate was combined with 45 μL of hybridization solution (final concentration: 3M GuSCN, 50 mM EDTA, 100 μg/ml salmon sperm DNA, 5× Denhardt's solution, 0.25×APE, and 5 ng of the digoxigenin-labeled detection probe). APE is 1.5 M NH4-acetate, 0.15 M ammonium phosphate monobasic, and 5 mM EDTA adjusted to pH 6.0. Mineral oil (50 μL) was added to prevent evaporation. The hybridization plates were incubated at 95° C. for 10 minutes to denature the DNA, then incubated at 42° C. overnight. The wells were washed 6× with 300 μL/well SSC/T buffer then incubated with 75 μL/well anti-digoxigenin-HRP-conjugated antibody (Boehringer Mannheim 1207733, 1:5000 in TE) for 30 min at room temperature. The wells were washed 6× with 300 μL/well with PBS/0.05% Tween-20 before 75 μL/well SuperSignal LBA substrate (Pierce) was added. The plates were incubated at room temperature for 30 minutes and chemiluminescence was measured in a Wallac Victor reader.
The following results were obtained for HSV-1.

Row | IC50 [µM] | SMILES
1 | 27 | CC(C)NCc1nn2ccccc2c1-c1ccnc(NC2CCCC2)n1 [Example 25, N-Cyclopentyl-4-{2-[(isopropylamino)methyl]pyrazolo[1,5-a]pyridin-3-yl}-2-pyrimidinamine]
2 | 1.2 | COCc1nn2c(NC3CCCC3)cccc2c1-c1ccnc(NC2CCCC2)n1 [Example 22, N-Cyclopentyl-3-[2-(cyclopentylamino)-4-pyrimidinyl]-2-(methoxymethyl)pyrazolo[1,5-a]pyridin-7-amine]
3 | > 5 | CSc1nccc(-c2c(C=O)nn3ccccc23)n1 [Example 12, 3-[2-(Methylthio)pyrimidin-4-yl]pyrazolo[1,5-a]pyridine-2-carbaldehyde]
4 | 24 | CC(C)Cc1nn2ccccc2c1-c1ccnc([S+](C)[O-])n1 (centres unmarked) [Example 6, 2-Isobutyl-3-[2-(methylsulfinyl)pyrimidin-4-yl]pyrazolo[1,5-a]pyridine]
5 | 7 | O=C(c1ccccc1)c1nn2ccccc2c1-c1ccnc(NC2CCCC2)n1 [Example 15, {3-[2-(Cyclopentylamino)-4-pyrimidinyl]pyrazolo[1,5-a]pyridin-2-yl}(phenyl)methanone]
6 | 1.9 | CC(C)Cc1nn2c([S+](C)[O-])cccc2c1-c1ccnc(NC2CCCC2)n1 (centres unmarked) [Example 9, N-Cyclopentyl-4-[2-isobutyl-7-(methylsulfinyl)pyrazolo[1,5-a]pyridin-3-yl]pyrimidin-2-amine]
7 | 0.5 | CC(C)Cc1nn2c(NC3CCCC3)cccc2c1-c1ccnc(NC2CCCC2)n1 [Example 10, N-Cyclopentyl-3-[2-(cyclopentylamino)pyrimidin-4-yl]-2-isobutylpyrazolo[1,5-a]pyridin-7-amine]
8 | > 2.5 | c1cc(NC2CCCC2)n2nc(CCCN3CCCC3)c(-c3ccnc(NC4CCCC4)n3)c2c1 [Example 23, N-Cyclopentyl-3-[2-(cyclopentylamino)-4-pyrimidinyl]-2-[3-(1-pyrrolidinyl)propyl]pyrazolo[1,5-a]pyridin-7-amine]
9 | 2 | c1ccc(Cc2nn3ccccc3c2-c2ccnc(NC3CCCC3)n2)cc1 [Example 17, 4-(2-Benzylpyrazolo[1,5-a]pyridin-3-yl)-N-cyclopentyl-2-pyrimidinamine]
10 | 0.9 | CCCc1nn2c(NC3CCCC3)cccc2c1-c1ccnc(NC2CCCC2)c1 [Example 4, N-Cyclopentyl-3-[2-(cyclopentylamino)pyridin-4-yl]-2-propylpyrazolo[1,5-a]pyridin-7-amine]
11 | 0.8 | c1ccc(Cc2nn3c(NC4CCCC4)cccc3c2-c2ccnc(NC3CCCC3)n2)cc1 [Example 19, N-{4-[2-Benzyl-7-(cyclopentylamino)pyrazolo[1,5-a]pyridin-3-yl]-2-pyrimidinyl}-N-cyclopentylamine]
12 | 21 | CSc1nccc(-c2c(CC(C)C)nn3ccccc23)n1 [Example 5, 2-Isobutyl-3-[2-(methylthio)pyrimidin-4-yl]pyrazolo[1,5-a]pyridine]
13 | 23 | COCCOCc1nn2c(Cl)cccc2c1-c1ccnc(NC2CCCC2)n1 [Example 29, 4-{7-Chloro-2-[(2-methoxyethoxy)methyl]pyrazolo[1,5-a]pyridin-3-yl}-N-cyclopentyl-2-pyrimidinamine]
14 | > 40 | CCCc1nn2ccccc2c1-c1ccnc(F)c1 [Example 1, 3-(2-Fluoropyridin-4-yl)-2-propylpyrazolo[1,5-a]pyridine]
15 | 2.5 | OC(c1ccccc1)c1nn2ccccc2c1-c1ccnc(NC2CCCC2)n1 (centres unmarked) [Example 14, {3-[2-(Cyclopentylamino)-4-pyrimidinyl]pyrazolo[1,5-a]pyridin-2-yl}(phenyl)methanol]
16 | 15 | COCc1nn2ccccc2c1-c1ccnc(NC2CCCC2)n1 [Example 20, N-Cyclopentyl-4-[2-(methoxymethyl)pyrazolo[1,5-a]pyridin-3-yl]-2-pyrimidinamine]

Row | IC50 [µM] | SMILES
17 | 0.9 | c1cc(NC2CCCC2)n2nc(C3CC3)c(-c3ccnc(NC4CCCC4)n3)c2c1 [Example 36, N-Cyclopentyl-3-[2-(cyclopentylamino)pyrimidin-4-yl]-2-cyclopropylpyrazolo[1,5-a]pyridin-7-amine]
18 | 4.6 | COCc1nn2c(SC)cccc2c1-c1ccnc(NC2CCCC2)n1 [Example 21, N-Cyclopentyl-4-[2-(methoxymethyl)-7-(methylsulfanyl)pyrazolo[1,5-a]pyridin-3-yl]-2-pyrimidinamine]
19 | 23 | CC(C)NCCCc1nn2c(Cl)cccc2c1-c1ccnc(NC2CCCC2)n1 [Example 27, 4-{7-Chloro-2-[3-(isopropylamino)propyl]pyrazolo[1,5-a]pyridin-3-yl}-N-cyclopentyl-2-pyrimidinamine]
20 | 0.4 | O=C(c1ccccc1)c1nn2c(NC3CCCC3)cccc2c1-c1ccnc(NC2CCCC2)n1 [Example 16, {7-(Cyclopentylamino)-3-[2-(cyclopentylamino)-4-pyrimidinyl]-pyrazolo[1,5-a]pyridin-2-yl}(phenyl)methanone]
21 | 3.1 | c1ccn2nc(C3CC3)c(-c3ccnc(NC4CCCC4)n3)c2c1 [Example 35, N-Cyclopentyl-4-(2-cyclopropylpyrazolo[1,5-a]pyridin-3-yl)pyrimidin-2-amine]
22 | 18 | CC(C)Cc1nn2ccccc2c1-c1ccnc(NC2CCCC2)n1 [Example 7, N-Cyclopentyl-4-(2-isobutylpyrazolo[1,5-a]pyridin-3-yl)pyrimidin-2-amine]
23 | > 2.5 | CC(C)NCc1nn2c(NC3CCCC3)cccc2c1-c1ccnc(NC2CCCC2)n1 [Example 26, N-Cyclopentyl-3-[2-(cyclopentylamino)-4-pyrimidinyl]-2-[(isopropylamino)methyl]pyrazolo[1,5-a]pyridin-7-amine]
24 | 37 | CCCc1nn2c(Cl)cccc2c1-c1ccnc(F)c1 [Example 3, 7-Chloro-3-(2-fluoropyridin-4-yl)-2-propylpyrazolo[1,5-a]pyridine]
25 | 1.5 | COCCOCc1nn2c(NC3CCCC3)cccc2c1-c1ccnc(NC2CCCC2)n1 [Example 31, N-Cyclopentyl-3-[2-(cyclopentylamino)-4-pyrimidinyl]-2-[(2-methoxyethoxy)methyl]pyrazolo[1,5-a]pyridin-7-amine]
26 | 2.1 | CSc1nccc(-c2c(CNC(C)C)nn3ccccc23)n1 [Example 24, N-({3-[2-(Methylsulfanyl)-4-pyrimidinyl]pyrazolo[1,5-a]pyridin-2-yl}methyl)-2-propanamine]
27 | > 5 | CC(C)NCCCc1nn2c(NC3CCCC3)cccc2c1-c1ccnc(NC2CCCC2)n1 [Example 28, N-Cyclopentyl-3-[2-(cyclopentylamino)-4-pyrimidinyl]-2-[3-(isopropylamino)propyl]pyrazolo[1,5-a]pyridin-7-amine]
28 | 3.8 | CSc1cccc2c(-c3ccnc(NC4CCCC4)n3)c(CC(C)C)nn12 [Example 8, N-Cyclopentyl-4-[2-isobutyl-7-(methylthio)pyrazolo[1,5-a]pyridin-3-yl]pyrimidin-2-amine]
29 | > 40 | CSc1nccc(-c2c(C3CC3)nn3ccccc23)n1 [Example 34, 2-Cyclopropyl-3-[2-(methylthio)pyrimidin-4-yl]pyrazolo[1,5-a]pyridine]
30 | 4.4 | CC(C)c1nn2ccccc2c1-c1ccnc(NC2CCCC2)n1 [Example 32, N-Cyclopentyl-4-(2-isopropylpyrazolo[1,5-a]pyridin-3-yl)pyrimidin-2-amine]
31 | 2 | CC(C)c1nn2c(NC3CCCC3)cccc2c1-c1ccnc(NC2CCCC2)n1 [Example 33, N-Cyclopentyl-3-[2-(cyclopentylamino)pyrimidin-4-yl]-2-isopropylpyrazolo[1,5-a]pyridin-7-amine]
32 | 8 | CCCc1nn2ccccc2c1-c1ccnc(NC2CCCC2)c1 [Example 2, N-Cyclopentyl-4-(2-propylpyrazolo[1,5-a]pyridin-3-yl)pyridin-2-amine]

— US7153863B2, “Therapeutic compounds based on pyrazolopyridline derivatives” (SmithKline Beecham Corporation, priority 2002, dated 2006)
